Experiment [1] concerns the target Lysine-specific demethylase 5C (Homo sapiens, UniProt P41229). Briefly: Inhibition of N-terminal FLAG/His-tagged full-length human KDM5C (2 to 1560 residues) expressed in baculovirus infected Sf9 insect cells using peptide substrate incubated for 2 hrs by Alpha Screen assay.
In experiment [2] the target is T1, Lysine-specific demethylase 4A (Homo sapiens, UniProt O75164).
T1 sequence (O75164 whole entry): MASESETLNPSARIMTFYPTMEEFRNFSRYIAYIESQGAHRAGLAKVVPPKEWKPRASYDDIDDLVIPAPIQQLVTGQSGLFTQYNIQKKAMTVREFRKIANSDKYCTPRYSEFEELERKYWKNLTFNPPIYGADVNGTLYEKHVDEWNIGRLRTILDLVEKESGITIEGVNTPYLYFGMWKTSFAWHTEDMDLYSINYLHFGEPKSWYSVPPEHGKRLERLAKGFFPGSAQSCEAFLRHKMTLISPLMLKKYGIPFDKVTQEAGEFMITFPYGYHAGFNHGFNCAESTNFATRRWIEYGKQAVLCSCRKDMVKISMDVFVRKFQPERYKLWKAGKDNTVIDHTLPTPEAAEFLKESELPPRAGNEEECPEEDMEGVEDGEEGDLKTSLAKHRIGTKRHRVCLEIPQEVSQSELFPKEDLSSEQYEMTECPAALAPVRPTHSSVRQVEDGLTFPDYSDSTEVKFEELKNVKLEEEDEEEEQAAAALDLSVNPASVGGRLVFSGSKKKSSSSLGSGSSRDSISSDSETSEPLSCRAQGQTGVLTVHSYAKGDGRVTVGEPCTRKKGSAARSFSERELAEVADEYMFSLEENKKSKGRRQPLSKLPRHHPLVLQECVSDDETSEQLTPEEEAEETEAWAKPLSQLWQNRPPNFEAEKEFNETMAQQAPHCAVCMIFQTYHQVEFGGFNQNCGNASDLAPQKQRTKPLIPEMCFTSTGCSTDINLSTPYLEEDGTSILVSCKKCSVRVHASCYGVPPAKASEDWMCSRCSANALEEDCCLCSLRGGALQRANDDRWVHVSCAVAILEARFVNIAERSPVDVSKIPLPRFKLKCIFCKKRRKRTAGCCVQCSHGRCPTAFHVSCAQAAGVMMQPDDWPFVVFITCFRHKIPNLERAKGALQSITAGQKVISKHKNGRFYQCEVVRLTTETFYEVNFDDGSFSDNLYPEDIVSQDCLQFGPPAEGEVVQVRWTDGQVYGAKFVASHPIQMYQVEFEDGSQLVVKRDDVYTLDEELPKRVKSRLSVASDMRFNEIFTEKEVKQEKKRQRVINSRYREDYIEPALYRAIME
Kind of experiment: Inhibition of recombinant human KDM4A incubated for 30 mins by fluorescence based assay.

For experiment [3], the target named is T1, Lysine-specific demethylase 4A. Kind of experiment: Inhibition of KDM4A (unknown origin) incubated for 30 mins by fluorescence based assay.
For experiment [4], the target named is T2, Lysine-specific demethylase 5A (Homo sapiens, UniProt P29375). Briefly: Inhibition of full-length human KDM5A expressed in recombinant baculovirus expression system using […] peptide as substrate incubated for 30 to 45 mins by TR-FRET assay. Further details: species or system Sf9. A general note: Time-resolved FRET reads energy transfer from a long-lived donor to a nearby acceptor.

The target in experiment [5] is T1, Lysine-specific demethylase 4A. Briefly: Inhibition of KDM4A (1 to 359 residues) (unknown origin) using ARTKQTARK(me3)-STGGKAPRKQLA-GGK(biotin) peptide as substrate preincubated for 10 mins followed by substrate addition measured after 45 mins by LANCE Ultra assay.
In experiment [6] the target is T2, Lysine-specific demethylase 5A. Kind of experiment: Inhibition of full-length KDM5A ([…])(unknown origin) using ARTK(me3)-QTARKSTGGKAPRKQLA-GGK(biotin) as substrate preincubated for 10 mins followed by substrate addition measured after 45 mins by LANCE Ultra assay.
Experiment [7] has as its target Lysine-specific demethylase 6B (Homo sapiens, UniProt O15054). Briefly: Inhibition of KDM6B (1043 to end residues) (unknown origin) using ATKAARK(me3)-SAPATGGVKKPHRYRPG-GK(biotin) as substrate preincubated for 10 mins followed by substrate addition measured after 45 mins by LANCE Ultra assay.
In experiment [8] the target is Lysine-specific demethylase 2B (Homo sapiens, UniProt Q8NHM5). Kind of experiment: Inhibition of KDM2B (unknown origin).
In experiment [9] the target is Lysine-specific demethylase 2A (Homo sapiens, UniProt Q9Y2K7). Kind of experiment: Inhibition of KDM2A (unknown origin).

T2 sequence (P29375 whole entry): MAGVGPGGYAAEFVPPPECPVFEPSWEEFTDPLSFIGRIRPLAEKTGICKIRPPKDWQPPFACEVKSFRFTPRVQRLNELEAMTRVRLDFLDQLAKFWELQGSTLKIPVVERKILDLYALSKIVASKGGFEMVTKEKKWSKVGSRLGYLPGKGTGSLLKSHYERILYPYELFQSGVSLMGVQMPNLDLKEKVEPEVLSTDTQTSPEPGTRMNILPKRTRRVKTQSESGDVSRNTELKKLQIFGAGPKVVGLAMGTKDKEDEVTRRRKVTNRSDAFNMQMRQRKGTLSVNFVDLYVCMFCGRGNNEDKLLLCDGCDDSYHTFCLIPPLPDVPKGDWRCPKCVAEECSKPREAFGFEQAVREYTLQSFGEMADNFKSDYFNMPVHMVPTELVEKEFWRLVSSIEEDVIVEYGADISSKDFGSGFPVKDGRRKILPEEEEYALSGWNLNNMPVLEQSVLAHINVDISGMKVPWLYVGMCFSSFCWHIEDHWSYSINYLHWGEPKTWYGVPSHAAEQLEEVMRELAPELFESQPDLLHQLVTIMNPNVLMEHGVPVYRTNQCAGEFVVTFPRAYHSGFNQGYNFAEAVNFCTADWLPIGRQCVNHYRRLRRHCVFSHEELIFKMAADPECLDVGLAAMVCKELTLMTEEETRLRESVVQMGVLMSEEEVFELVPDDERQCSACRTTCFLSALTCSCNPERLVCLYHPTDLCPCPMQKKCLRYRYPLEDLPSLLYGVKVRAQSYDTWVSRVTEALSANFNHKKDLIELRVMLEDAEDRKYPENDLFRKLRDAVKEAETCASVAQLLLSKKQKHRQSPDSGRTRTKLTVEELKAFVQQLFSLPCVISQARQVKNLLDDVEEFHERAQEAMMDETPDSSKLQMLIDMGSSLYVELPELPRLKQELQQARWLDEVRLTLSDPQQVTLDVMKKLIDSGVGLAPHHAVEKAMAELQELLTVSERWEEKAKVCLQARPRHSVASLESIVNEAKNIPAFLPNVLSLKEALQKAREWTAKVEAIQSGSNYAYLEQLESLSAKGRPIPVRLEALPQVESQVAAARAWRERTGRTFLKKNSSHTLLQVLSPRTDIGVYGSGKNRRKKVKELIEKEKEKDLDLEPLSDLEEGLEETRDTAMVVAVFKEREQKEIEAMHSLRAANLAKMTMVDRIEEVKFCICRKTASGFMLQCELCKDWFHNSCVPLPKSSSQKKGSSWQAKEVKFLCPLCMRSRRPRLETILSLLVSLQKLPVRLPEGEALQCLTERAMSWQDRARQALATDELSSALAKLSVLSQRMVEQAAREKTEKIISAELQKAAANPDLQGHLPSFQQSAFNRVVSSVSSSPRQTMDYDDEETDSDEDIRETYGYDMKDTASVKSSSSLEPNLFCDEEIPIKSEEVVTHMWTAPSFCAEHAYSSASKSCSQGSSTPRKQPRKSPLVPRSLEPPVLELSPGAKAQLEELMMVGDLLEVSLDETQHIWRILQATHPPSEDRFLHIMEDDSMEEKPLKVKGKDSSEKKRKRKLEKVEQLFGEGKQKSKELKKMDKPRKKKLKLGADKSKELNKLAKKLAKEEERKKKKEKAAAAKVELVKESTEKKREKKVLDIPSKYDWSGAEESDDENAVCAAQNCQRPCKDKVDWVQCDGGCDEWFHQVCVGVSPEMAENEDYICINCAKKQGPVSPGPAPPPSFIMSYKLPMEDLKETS
Lysine-specific demethylase 5C, sequence (P41229 whole entry, the tested form may be a part): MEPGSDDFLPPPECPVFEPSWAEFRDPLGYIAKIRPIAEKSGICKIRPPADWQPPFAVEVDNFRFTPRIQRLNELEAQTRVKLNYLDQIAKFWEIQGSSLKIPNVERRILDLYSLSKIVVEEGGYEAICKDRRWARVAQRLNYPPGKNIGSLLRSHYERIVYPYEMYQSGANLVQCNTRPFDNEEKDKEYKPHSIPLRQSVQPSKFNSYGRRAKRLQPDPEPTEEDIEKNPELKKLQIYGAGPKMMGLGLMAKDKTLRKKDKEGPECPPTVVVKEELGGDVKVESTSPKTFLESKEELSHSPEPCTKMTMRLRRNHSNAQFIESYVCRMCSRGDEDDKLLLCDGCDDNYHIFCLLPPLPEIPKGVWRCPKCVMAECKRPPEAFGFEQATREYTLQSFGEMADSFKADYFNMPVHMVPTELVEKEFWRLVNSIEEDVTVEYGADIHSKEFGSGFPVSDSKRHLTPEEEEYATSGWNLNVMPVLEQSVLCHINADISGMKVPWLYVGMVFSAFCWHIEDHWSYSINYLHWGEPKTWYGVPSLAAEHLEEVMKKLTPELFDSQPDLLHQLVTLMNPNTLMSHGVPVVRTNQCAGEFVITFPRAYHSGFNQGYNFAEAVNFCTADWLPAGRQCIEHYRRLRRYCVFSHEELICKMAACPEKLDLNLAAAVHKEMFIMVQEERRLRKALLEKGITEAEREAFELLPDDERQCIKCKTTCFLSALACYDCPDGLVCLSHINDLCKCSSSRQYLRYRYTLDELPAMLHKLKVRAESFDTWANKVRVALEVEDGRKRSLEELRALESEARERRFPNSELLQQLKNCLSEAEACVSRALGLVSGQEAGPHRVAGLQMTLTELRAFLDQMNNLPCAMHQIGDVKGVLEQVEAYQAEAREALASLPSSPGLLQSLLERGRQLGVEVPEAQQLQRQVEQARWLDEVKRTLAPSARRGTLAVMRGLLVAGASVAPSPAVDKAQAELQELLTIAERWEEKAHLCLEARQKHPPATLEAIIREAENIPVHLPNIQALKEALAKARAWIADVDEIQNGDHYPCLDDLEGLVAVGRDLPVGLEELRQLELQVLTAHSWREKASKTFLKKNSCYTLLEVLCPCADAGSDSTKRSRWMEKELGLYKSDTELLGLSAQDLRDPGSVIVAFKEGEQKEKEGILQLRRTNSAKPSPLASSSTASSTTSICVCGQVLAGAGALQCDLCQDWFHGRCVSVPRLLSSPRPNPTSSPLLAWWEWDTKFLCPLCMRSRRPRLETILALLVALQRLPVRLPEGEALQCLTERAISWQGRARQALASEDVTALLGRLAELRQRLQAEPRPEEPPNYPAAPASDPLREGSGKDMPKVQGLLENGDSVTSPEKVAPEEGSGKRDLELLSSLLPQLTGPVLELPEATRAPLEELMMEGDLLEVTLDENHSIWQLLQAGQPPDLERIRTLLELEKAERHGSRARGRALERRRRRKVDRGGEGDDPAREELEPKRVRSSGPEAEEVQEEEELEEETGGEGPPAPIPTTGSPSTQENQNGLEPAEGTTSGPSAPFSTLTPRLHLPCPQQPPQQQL
Lysine-specific demethylase 2B, sequence (Q8NHM5 whole entry): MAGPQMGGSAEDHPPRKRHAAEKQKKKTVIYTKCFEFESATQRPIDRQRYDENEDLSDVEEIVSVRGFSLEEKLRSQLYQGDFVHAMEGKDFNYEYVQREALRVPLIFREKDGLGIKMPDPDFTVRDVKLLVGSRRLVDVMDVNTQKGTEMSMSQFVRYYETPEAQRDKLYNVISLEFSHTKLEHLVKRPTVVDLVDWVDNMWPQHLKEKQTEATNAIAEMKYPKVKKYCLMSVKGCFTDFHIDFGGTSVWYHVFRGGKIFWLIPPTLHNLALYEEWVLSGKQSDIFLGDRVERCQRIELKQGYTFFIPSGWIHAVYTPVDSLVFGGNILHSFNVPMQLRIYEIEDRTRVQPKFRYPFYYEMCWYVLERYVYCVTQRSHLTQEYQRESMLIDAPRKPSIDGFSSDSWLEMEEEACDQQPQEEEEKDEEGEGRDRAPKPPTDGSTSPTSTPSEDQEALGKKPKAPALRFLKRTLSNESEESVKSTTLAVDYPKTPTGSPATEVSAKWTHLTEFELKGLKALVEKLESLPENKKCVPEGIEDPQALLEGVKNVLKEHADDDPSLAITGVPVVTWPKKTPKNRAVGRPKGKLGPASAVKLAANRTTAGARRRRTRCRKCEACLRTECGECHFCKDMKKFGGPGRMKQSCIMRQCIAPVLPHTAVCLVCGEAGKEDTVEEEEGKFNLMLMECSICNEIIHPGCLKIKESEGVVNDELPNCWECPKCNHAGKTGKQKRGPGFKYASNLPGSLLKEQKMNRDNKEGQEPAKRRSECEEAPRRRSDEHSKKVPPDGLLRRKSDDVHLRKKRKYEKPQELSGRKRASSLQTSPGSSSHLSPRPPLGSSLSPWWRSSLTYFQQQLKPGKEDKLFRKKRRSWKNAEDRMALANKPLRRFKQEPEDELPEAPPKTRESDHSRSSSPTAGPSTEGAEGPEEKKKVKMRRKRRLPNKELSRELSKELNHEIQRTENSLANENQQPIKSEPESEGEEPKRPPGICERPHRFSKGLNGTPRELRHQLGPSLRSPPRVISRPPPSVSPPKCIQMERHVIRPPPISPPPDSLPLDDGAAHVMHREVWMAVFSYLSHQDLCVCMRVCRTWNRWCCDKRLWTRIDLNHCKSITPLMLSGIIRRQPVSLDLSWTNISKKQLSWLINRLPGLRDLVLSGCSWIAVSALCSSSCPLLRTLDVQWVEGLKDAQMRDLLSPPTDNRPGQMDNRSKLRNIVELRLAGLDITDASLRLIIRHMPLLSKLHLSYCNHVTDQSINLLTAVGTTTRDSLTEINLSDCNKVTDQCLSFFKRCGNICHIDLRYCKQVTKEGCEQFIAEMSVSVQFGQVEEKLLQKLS

The term IC50 denotes the concentration needed to halve the response being measured. The compound `CCCCCCN(C)CCn1cc(-c2cc(C(=O)O)ccn2)nn1` came in with an IC50 in [1] of 0.0088 µM.
On to `O=C(O)c1cc(O)c(=O)c2c(O)c(O)cc(-c3ccccc3)c2c1`, for which the IC50 in [2] is 24.4 µM.
For `Cc1cc(O[C@H](C)C(=O)NCC(=O)NCC(=O)O)c2c3c(c(=O)oc2c1)CCC3`, the IC50 is > 100 µM in experiment [3] and 0.0238 µM in experiment [4].
Turning to `O=C(O)c1ccc(-n2nc(-c3ccccc3O)nc2-c2ccccc2O)cc1` [DEFERASIROX], the IC50 in experiment [5] is 4.76 µM; in experiment [6], 5 µM; in [7] it was 3.95 µM.
Consider `Cc1c(O)c(=O)ccn1C` [DEFERIPRONE], for which the values for the IC50 in [8] and in experiment [9] were 8.1 µM and 6.8 µM, respectively.

The record behind these values is ChEMBL document CHEMBL5126529, “Drug discovery of histone lysine demethylases (KDMs) inhibitors (progress from 2018 to present)” (Eur J Med Chem, 2022).
